# Measured values reported in patent US20040018581A1, “Method for discovering substances for inhibiting enzymes” (Pharmacia and UpJohn Company, priority 2002, published 2004).
# Experiments:
# [1] = system: Δgpd1-pYES2/mt1D (Saccharomyces cerevisiae Δgpd1 expressing E. coli mt1D); experiment: Growth inhibition of yeast transformant Δgpd1-pYES2/mt1D in liquid YEPD with or without 1.5 M NaCl (OD 600); type: cell-based
# Protocol: (§1) Transformants growing on high salt plates were picked and grown in 18×150 mm glass culture tubes containing 10 ml liquid YEPD medium or liquid YEPD medium with 1.5 M NaCl. These tubes were inoculated with approximately 10^5 cells and cultured at 30° C. on a roller bottle. Growth rates were recorded in terms of optical density values at various times after inoculation. Growth rates were also monitored in 96-well plates using the indicator dye Alamar Blue (BioSource International, Camarillo, Calif.) as previously described by Klein et al., (1997b). In 96-well plate experiments, each well contained approximately 10^4 cells (in 20 ul medium) inoculated into 180 ul liquid YEPD medium or liquid YEPD medium containing 1.5 M NaCl. These plates were then incubated at 30° C. for 24 or 48 hours. At that time, 20 ul Alamar Blue solution was added to each well and the color allowed to develop for 5-30 minutes. Color changes in each well were noted after visual inspection and recorded.
# (§2) Nitrophenide, a known inhibitor of MIPDH (Schmatz 1997), was used to validate the assay. The Δgpd1transformed with pYES21/m1pdh was grown in liquid YEPD medium, either supplemented with 1.5 M NaCal or not and containing one of 3 concentrations of nitrophenide (Aldrich Chemical Co.) dissolved in DMSO. Experiments were conducted in glass culture tubes prepared and processed as described above. Growth in nitrophenide-containing media was compared to growth in identical medium lacking nitrophenide by measuring and recording changes at OD 600 nm after 24, 48 or 72 hours in culture as described above.
# (§3) Test groups of each sample organism were inoculated into liquid cultures of YEPD and YEPD with 1.5 M NaCl. Rate of growth was estimated by recording OD 600 values at 24 hr intervals. All strains grew equally well in YEPD, but growth rates in YEPD with 1.5 M NaCl were distinctly different between transformants expressing mt1D or m1pdh and controls as shown in FIG. 3.
# Nitrophenide was dissolved in DMSO and added to cultures at final concentrations of 1 μM, 2.5 μM or 10 μM. DMSO alone was also tested. […]
# [2] = system: Δgpd1-pYES2/m1pdh (Saccharomyces cerevisiae Δgpd1 expressing Eimeria tenella m1pdh); experiment: Growth inhibition of yeast transformant Δgpd1-pYES2/m1pdh in liquid YEPD with or without 1.5 M NaCl (OD 600); type: cell-based
# Protocol: as §1, §2, §3
# Nitrophenide was dissolved in DMSO and added to cultures at final concentrations of 1 μM, 2.5 μM or 10 μM. DMSO alone was also tested. Little toxicity was apparent for DMSO or for nitrophenide in YEPD except at 10 μM, a concentration at which slowing of the rate of growth of Δgpd1-pYES2/mt1D and Δgpd1-pYES2/MIPDH was observed as shown in FIG. 4. However, in YEPD with 1.5 M NaCl, nitrophenide was toxic to Δgpd1-pYES2/mt1D and Δgpd1-pYES2/MIPDH at concentrations as low as 2.5 uM and abolishes growth at 10 uM as shown in FIG. 4. Nitrophenide was also toxic to W303-1A under these conditions, but this strain grew more slowly than either of the transformants under salt pressure. The difference in rate of growth made comparisons between strains difficult.
# W303-1A = experiment: Growth inhibition of wild-type yeast W303-1A in YEPD with 1.5 M NaCl (OD 600); type: cell-based, Saccharomyces cerevisiae
# Protocol: as §1
# as §2, with “Growth in nitrophenide-containing media was compared to growth in identical medium lacking nitrophenide by measuring and recording changes at OD 600 nm after 24, 48 or 72 hours in culture as described above.” left out
# [3] = YEPD with 1.5 M NaCl, tested at 1, 2.5 and 10 μM
# [4] = YEPD without added NaCl, little toxicity at lower concentrations
structure (smiles),measurement,setting,value
"O=[N+]([O-])c1cccc(SSc2cccc([N+](=O)[O-])c2)c1 [Nitrophenide, nitrophenide]",concentration that abolishes growth,[1]; YEPD with 1.5 M NaCl,10 µM
same,lowest concentration toxic to growth,[1]; [3],2.5 µM
same,concentration at which slowing of the rate of growth was observed,[1]; [4],10 µM
same,concentration that abolishes growth,[2]; YEPD with 1.5 M NaCl,10 µM
same,lowest concentration toxic to growth,[2]; [3],2.5 µM
same,concentration at which slowing of the rate of growth was observed,[2]; [4],10 µM
same,effect on growth (FIG. 4),[2]; medium containing 1.5 M NaCl,dramatically suppressed
same,toxicity compared with 1.5 M NaCl medium (FIG. 4),[2]; medium with no additional NaCl,reduced
same,toxicity to growth,W303-1A,toxic
